Columns and labels:
Design in all cases: species or system rat (male Sprague-Dawley)
5-HT1A receptors [1] = target: T1, 5-HT1A receptors (Rattus norvegicus, UniProt P19327); experiment: in vitro binding: inhibition of 3H-8-OH-DPAT binding to synaptosomal membranes from rat cerebral cortex; conditions: 3H-8-OH-DPAT 2 nM, 37° C., 10 min, pH 7.4
T1 construct: from tissue; host or cells: cerebral cortex (crude synaptosomal membranes) of male Sprague-Dawley rats
T1 sequence (P19327 1-422): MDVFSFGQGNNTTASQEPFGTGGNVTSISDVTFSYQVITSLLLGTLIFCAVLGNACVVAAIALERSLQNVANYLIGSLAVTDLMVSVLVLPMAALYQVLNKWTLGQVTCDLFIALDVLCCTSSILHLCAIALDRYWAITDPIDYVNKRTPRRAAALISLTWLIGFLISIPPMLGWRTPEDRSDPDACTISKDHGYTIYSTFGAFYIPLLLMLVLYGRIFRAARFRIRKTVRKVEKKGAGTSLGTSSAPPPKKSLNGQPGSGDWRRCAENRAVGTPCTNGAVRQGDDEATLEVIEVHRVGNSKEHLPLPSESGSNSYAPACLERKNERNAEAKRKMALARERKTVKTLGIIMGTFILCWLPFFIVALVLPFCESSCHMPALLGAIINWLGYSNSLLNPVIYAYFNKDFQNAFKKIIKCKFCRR
Excerpt: Sites specifically labeled by tritiated 8-hydroxy-2-dipropylamino-1,2,3,4-tetrahydronaphthalene (^3 H-8-OH-DPAT) have been identified as 5-HT1A receptors. This general procedure is set forth in Wong et al., J. Neural Transm. 71:207-218 (1988).
Male Sprague-Dawley rats (110-150 g) from Harlan Industries (Cumberland, Ind.) were fed a Purina Chow ad libitum for at least 3 days before being used in the studies. Rats were killed by decapitation. The brains were rapidly removed, and the cerebral cortices were dissected out at 4° C.
Brain tissues were homogenized in 0.32M sucrose. After centrifugation at 1000×g for 10 min and then at 17000×g for 20 min, a crude synaptosomal fraction was sedimented. The pellet was suspended in 100 vol of 50 mM Tris-HCl, pH 7.4, incubated at 37° C. for 10 min, and centrifuged at 50000×g for 10 min. The process was repeated and the final pellet was suspended in ice-chilled 50 mM Tris-HCl, pH 7.4.
Binding of ^3 H-8-OH-DPAT was performed according to the previously described method [Wong et al., J. Neural Transm. 64:251-269 (1985)]. Briefly, synaptosomal membranes isolated from cerebral cortex were incubated at 37° C. for 10 min. in 2 ml of 50 mM Tris-HCl, pH 7.4; 10 mM pargyline; 0.6 mM ascorbic acid; 5 mM CaCl2; 2 nM ^3 H-8-OH-DPAT and 0.1 to 1000 nm of the compound of interest. Binding was terminated by filtering samples under reduced pressure through glass fiber (GFB) filters. The filters were washed twice with 5 ml of ice cold buffer and placed in scintillation vials with 10 ml of PCS (Amersham/Searle) scintillation fluid. Radioactivity was measured with a liquid scintillation spectrometer. Unlabeled 8-OH-DPAT at 10 μM was also included in separate samples to establish non-specific binding. Specific binding of ^3 H-8-OH-DPAT is defined as the difference of radioactivity bound in the absence and in the presence of 10 μM unlabeled 8-OH-DPAT.
(§1) The results provided in columns 3-5 are indicative of 5-HT1A agonist activity.

5-HT1A receptors [2] = target: T1, 5-HT1A receptors; experiment: in vivo elevation of serum corticosterone levels (5-HT1A agonist activity); conditions: sc, one hour after treatment
Method: (§2) Compounds of this invention were also examined for their in vivo effects on brain 5-HIAA and serum corticosterone levels. Male Sprague-Dawley rats weighting 150-200 g were administered subcutaneously or orally with aqueous solutions of the test compound. One hour after treatment, the rats were decapitated and trunk blood collected. The blood was allowed to clot and then was centrifuged to separate the serum. The concentration of corticosterone in the serum was determined by the spectrofluorometric method of Solem, J. H.; Brinck-Johnsen, T., Scand. J. Clin. Invest. [Suppl. 80], 17, 1 (1965). The whole brains from the decapitated rats were quickly removed, frozen on dry ice, and stored at -15° C. 5-HIAA concentrations were measured by liquid chromatography with electrochemical detection as described by Fuller, R. W.; Snoddy, H. D.; Perry, K. W., Life Sci. 40, 1921 (1987).
as §1

5-HT1A receptors [3] = target: T1, 5-HT1A receptors; experiment: in vivo lowering of brain 5-HIAA levels (5-HT1A agonist activity); conditions: sc, one hour after treatment
Method: as §2, §1

## CCCN(CCC)C1CCc2cccc(-c3nccs3)c2C1 (stereo not drawn) [Example 9, 2-Di-n-propylamino-8-(thiazol-2-yl)-1,2,3,4-tetrahydronaphthalene]
5-HT1A receptors [1]
  IC50: 12 nM
5-HT1A receptors [2]
  Corticosterone MED (minimum effective dose elevating serum corticosterone levels): > 1.0 mg/kg
5-HT1A receptors [3]
  5-HIAA MED (minimum effective dose lowering brain 5-HIAA levels): > 1.0 mg/kg

— patent US5571942A, “Ring-substituted 2-amino-1,2,3,4-tetrahydronaphthalenes and 3-aminochromanes” (Eli Lilly and Company, priority 1995, dated 1996)
